Patent US6737383B1, “Herbicidal oxadiazolidines” (priority 1999, dated 2004)

How the values were obtained:
blackgrass = assay: Test B pre/postemergence blackgrass; type: in vivo, Alopecurus myosuroides
Summary of the method: (§1)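 Response is a visual 0-to-10 score relative to untreated plants, where 0 means no effect and 10 means complete control, taken twelve to sixteen days after application. Treatments went onto soil at planting and onto foliage of 1- to 4-leaf plants, using a surfactant-containing non-phytotoxic solvent.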

surinam grass = assay: Test B pre/postemergence surinam grass; type: in vivo, Brachiaria decumbens
Summary of the method: as §1

cocklebur = assay: Test B pre/postemergence cocklebur; type: in vivo, Xanthium strumarium
Summary of the method: as §1

corn = assay: Test B pre/postemergence corn; type: in vivo, Zea mays
Summary of the method: as §1

crabgrass = assay: Test B pre/postemergence crabgrass; type: in vivo, Digitaria sanguinalis
Summary of the method: as §1

soybean = assay: Test B pre/postemergence soybean; type: in vivo, Glycine max
Summary of the method: as §1

sugar beet = assay: Test B pre/postemergence sugar beet; type: in vivo, Beta vulgaris
Summary of the method: as §1

velvetleaf = assay: Test B pre/postemergence velvetleaf; type: in vivo, Abutilon theophrasti
Summary of the method: as §1

wheat = assay: Test B pre/postemergence wheat; type: in vivo, Triticum aestivum
Summary of the method: as §1

wild oat = assay: Test B pre/postemergence wild oat; type: in vivo, Avena fatua
Summary of the method: as §1

purple nutsedge = assay: Test B pre/postemergence purple nutsedge; type: in vivo, Cyperus rotundus
Summary of the method: as §1

rice = assay: Test B flood test rice; type: in vivo, Oryza sativa
Summary of the method: (§2)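 Read-out is a visual response score from 0 (no effect) to 10 (complete control), assigned by comparison with untreated controls. Treatment was applied at the 2-leaf stage, and plants stayed in the greenhouse for twelve to sixteen days before scoring.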

smallflower flatsedge = assay: Test B flood test smallflower flatsedge; type: in vivo, Cyperus difformis
Summary of the method: as §2

duck salad = assay: Test B flood test duck salad; type: in vivo, Heteranthera limosa
Summary of the method: as §2

bamyardgrass = assay: Test B flood test barnyardgrass; type: in vivo, Echinochloa crus-galli
Summary of the method: as §2

[1] = Postemergence, Rate 250 g/ha, scale 0 to 10
[2] = Postemergence, Rate 500 g/ha, scale of 0 to 10 where 0 is no effect and 10 is complete control
[3] = Preemergence, Rate 62 g/ha, scale of 0 to 10 where 0 is no effect and 10 is complete control
[4] = Preemergence, Rate 125 g/ha, scale of 0 to 10 where 0 is no effect and 10 is complete control
[5] = Preemergence, Rate 250 g/ha, scale 0 to 10, 0 is no effect, 10 is complete control
[6] = Preemergence, Rate 500 g/ha, scale 0 to 10, 0 is no effect, 10 is complete control
[7] = Rate 62 g/ha, Postemergence, scale 0 to 10 (0 no effect, 10 complete control)
[8] = Rate 125 g/ha, Postemergence, scale 0 to 10, 0 is no effect, 10 is complete control
[9] = Rate 62 g/ha, flood test species, Pre-emergence, visual evaluation after twelve to sixteen days
[10] = Rate 125 g/ha, under heading Pre-emergence, flood test species, visual evaluation after twelve to sixteen days
[11] = Rate 250 g/ha, Pre-emergence (flood test species), scale 0 to 10, 0 is no effect, 10 is complete control
[12] = Rate 500 g/ha, Pre-emergence, flood test species, scale 0 to 10 (0 no effect, 10 complete control)

CC(C)N(C(=O)n1oc(=O)n(CCC#N)c1=O)c1ccc(Cl)cc1 [Compound 444]
8: Blackgrass plant response rating (blackgrass; [5]) | Blackgrass plant response rating (blackgrass; [6]) | B. signalgrass plant response rating (surinam grass; [6])
1: B. signalgrass plant response rating (surinam grass; [5]) | Soybean plant response rating (soybean; [7]) | Soybean plant response rating (soybean; [8])
3: Soybean plant response rating (soybean; [6]) | Sugarbeets plant response rating (sugar beet; [2]) | Velvetleaf plant response rating (velvetleaf; [2])
5: Blackgrass plant response rating (blackgrass; [1]) | Plant response rating, Crabgrass (crabgrass; [4])
0: Plant response rating, Blackgrass (blackgrass; [3]) | Plant response rating, Blackgrass (blackgrass; [4]) | Blackgrass plant response rating (blackgrass; [7]) | Plant response rating, B. signalgrass (surinam grass; [3]) | Plant response rating, B. signalgrass (surinam grass; [4]) | B. signalgrass plant response rating (surinam grass; [7]) | B. signalgrass plant response rating (surinam grass; [8]) | Cocklebur plant response rating (cocklebur; [1]) | Cocklebur plant response rating (cocklebur; [2]) | Plant response rating, Cocklebur (cocklebur; [3]) | Plant response rating, Cocklebur (cocklebur; [4]) | Cocklebur plant response rating (cocklebur; [5]) | Cocklebur plant response rating (cocklebur; [6]) | Cocklebur plant response rating (cocklebur; [7]) | Cocklebur plant response rating (cocklebur; [8]) | Corn plant response rating (corn; [1]) | Corn plant response rating (corn; [2]) | Plant response rating, Corn (corn; [3]) | Plant response rating, Corn (corn; [4]) | Corn plant response rating (corn; [5]) | Corn plant response rating (corn; [6]) | Corn plant response rating (corn; [7]) | Corn plant response rating (corn; [8]) | Plant response rating, Soybean (soybean; [3]) | Plant response rating, Soybean (soybean; [4]) | Sugarbeets plant response rating (sugar beet; [1]) | Plant response rating, Sugarbeets (sugar beet; [3]) | Plant response rating, Sugarbeets (sugar beet; [4]) | Sugarbeets plant response rating (sugar beet; [5]) | Sugarbeets plant response rating (sugar beet; [6]) | Sugarbeets plant response rating (sugar beet; [7]) | Sugarbeets plant response rating (sugar beet; [8]) | Velvetleaf plant response rating (velvetleaf; [1]) | Plant response rating, Velvetleaf (velvetleaf; [3]) | Plant response rating, Velvetleaf (velvetleaf; [4]) | Velvetleaf plant response rating (velvetleaf; [5]) | Velvetleaf plant response rating (velvetleaf; [7]) | Velvetleaf plant response rating (velvetleaf; [8]) | Wheat plant response rating (wheat; [1]) | Wheat plant response rating (wheat; [2]) | Plant response rating, Wheat (wheat; [3]) | Plant response rating, Wheat (wheat; [4]) | Wheat plant response rating (wheat; [5]) | Wheat plant response rating (wheat; [6]) | Wheat plant response rating (wheat; [7]) | Wheat plant response rating (wheat; [8]) | Wild oats plant response rating (wild oat; [1]) | Plant response rating, Wild oats (wild oat; [3]) | Plant response rating, Wild oats (wild oat; [4]) | Wild oats plant response rating (wild oat; [5]) | Wild oats plant response rating (wild oat; [7]) | Wild oats plant response rating (wild oat; [8]) | Nutsedge plant response rating (purple nutsedge; [1]) | Nutsedge plant response rating (purple nutsedge; [2]) | Plant response rating, Nutsedge (purple nutsedge; [3]) | Plant response rating, Nutsedge (purple nutsedge; [4]) | Nutsedge plant response rating (purple nutsedge; [5]) | Nutsedge plant response rating (purple nutsedge; [6]) | Nutsedge plant response rating (purple nutsedge; [7]) | Nutsedge plant response rating (purple nutsedge; [8]) | Plant response rating, Rice (0 to 10 scale, 0 is no effect, 10 is complete control) (rice; [9]) | Rice plant response rating (0 to 10 scale, 0 is no effect, 10 is complete control) (rice; [10]) | Rice plant response rating (rice; [11]) | Rice plant response rating (rice; [12]) | Plant response rating, S. Flatsedge (0 to 10 scale, 0 is no effect, 10 is complete control) (smallflower flatsedge; [9]) | S. Flatsedge plant response rating (0 to 10 scale, 0 is no effect, 10 is complete control) (smallflower flatsedge; [10]) | S. Flatsedge plant response rating (smallflower flatsedge; [11]) | S. Flatsedge plant response rating (smallflower flatsedge; [12]) | Plant response rating, Ducksalad (0 to 10 scale, 0 is no effect, 10 is complete control) (duck salad; [9]) | Ducksalad plant response rating (0 to 10 scale, 0 is no effect, 10 is complete control) (duck salad; [10]) | Ducksalad plant response rating (duck salad; [11]) | Ducksalad plant response rating (duck salad; [12]) | Plant response rating, Barnyardgrass (0 to 10 scale, 0 is no effect, 10 is complete control) (bamyardgrass; [9]) | Barnyardgrass plant response rating (0 to 10 scale, 0 is no effect, 10 is complete control) (bamyardgrass; [10]) | Barnyardgrass plant response rating (bamyardgrass; [11]) | Barnyardgrass plant response rating (bamyardgrass; [12])
2: Blackgrass plant response rating (blackgrass; [8]) | Crabgrass plant response rating (crabgrass; [7]) | Crabgrass plant response rating (crabgrass; [8]) | Soybean plant response rating (soybean; [1]) | Soybean plant response rating (soybean; [2]) | Soybean plant response rating (soybean; [5]) | Wild oats plant response rating (wild oat; [2])
7: Blackgrass plant response rating (blackgrass; [2])
4: B. signalgrass plant response rating (surinam grass; Postemergence, Rate 250 g/ha, scale 0 to 10, 0 no effect, 10 complete control) | B. signalgrass plant response rating (surinam grass; [2]) | Plant response rating, Crabgrass (crabgrass; [3]) | Velvetleaf plant response rating (velvetleaf; [6]) | Wild oats plant response rating (wild oat; [6])
10: Crabgrass plant response rating (crabgrass; [6])
9: Crabgrass plant response rating (crabgrass; [1]) | Crabgrass plant response rating (crabgrass; [2]) | Crabgrass plant response rating (crabgrass; [5])
